Measured values from ChEMBL document CHEMBL3879906 (2013).
The source made the active and inactive calls. No cut-off for these calls is given here.

How the values were obtained:
Cardiac muscle cell [1] = assay: Prolongation of action potential duration in human atrial myocytes at 2 Hz at 5 to 10 uM by whole cell patch clamp method; format: functional, cell-based
[2] = Effect on resting membrane potential in human atrial myocytes at 5 to 10 uM by whole cell patch clamp method; format: cell-based; settings: cardiac muscle cell
[3] = target: Potassium voltage-gated channel subfamily A member 5 (Homo sapiens) (UniProt P22460); assay: Inhibition of Kv1.5 in human atrial myocytes assessed as decrease in ultra rapidly activating delayed rectifier potassium current amplitude at 3 uM after 8 mins by whole cell patch clamp method; format: cell-based
Sequence of Potassium voltage-gated channel subfamily A member 5 (Homo sapiens) (P22460 whole entry): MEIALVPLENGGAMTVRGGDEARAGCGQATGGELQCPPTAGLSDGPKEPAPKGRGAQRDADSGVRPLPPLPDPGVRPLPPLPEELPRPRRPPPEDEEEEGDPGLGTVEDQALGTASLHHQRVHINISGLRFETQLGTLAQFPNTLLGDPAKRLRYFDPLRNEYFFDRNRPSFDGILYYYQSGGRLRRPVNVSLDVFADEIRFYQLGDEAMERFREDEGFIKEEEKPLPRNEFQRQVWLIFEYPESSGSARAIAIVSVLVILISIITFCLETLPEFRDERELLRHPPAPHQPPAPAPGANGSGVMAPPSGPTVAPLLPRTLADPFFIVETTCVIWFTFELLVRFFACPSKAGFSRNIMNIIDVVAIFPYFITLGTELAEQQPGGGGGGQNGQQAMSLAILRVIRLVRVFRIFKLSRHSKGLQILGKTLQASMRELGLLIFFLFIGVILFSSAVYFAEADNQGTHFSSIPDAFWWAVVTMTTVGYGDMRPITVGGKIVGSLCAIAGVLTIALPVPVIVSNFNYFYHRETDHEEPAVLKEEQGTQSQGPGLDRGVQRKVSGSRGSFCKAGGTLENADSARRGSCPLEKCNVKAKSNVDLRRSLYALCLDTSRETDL

[4] = target: Potassium voltage-gated channel subfamily A member 5 (Homo sapiens) (UniProt P22460); assay: Inhibition of Kv1.5 in human atrial myocytes assessed as decrease in ultra rapidly activating delayed rectifier potassium tail and step current amplitude at 3 to 30 uM by whole cell patch clamp method; format: cell-based
[5] = target: Potassium voltage-gated channel subfamily A member 5 (Homo sapiens) (UniProt P22460); assay: Inhibition of Kv1.5 in human atrial myocytes assessed as decrease in ultra rapidly activating delayed rectifier potassium current amplitude at 40 mV by whole cell patch clamp method; format: cell-based
[6] = target: T1, A-type voltage-gated potassium channel KCND3 (Homo sapiens, UniProt Q9UK17); assay: Inhibition of Kv4.3 in human atrial myocytes assessed as decrease in transient outward potassium current amplitude at 3 to 10 uM by whole cell patch clamp method; format: cell-based
T1 sequence (Q9UK17 whole entry): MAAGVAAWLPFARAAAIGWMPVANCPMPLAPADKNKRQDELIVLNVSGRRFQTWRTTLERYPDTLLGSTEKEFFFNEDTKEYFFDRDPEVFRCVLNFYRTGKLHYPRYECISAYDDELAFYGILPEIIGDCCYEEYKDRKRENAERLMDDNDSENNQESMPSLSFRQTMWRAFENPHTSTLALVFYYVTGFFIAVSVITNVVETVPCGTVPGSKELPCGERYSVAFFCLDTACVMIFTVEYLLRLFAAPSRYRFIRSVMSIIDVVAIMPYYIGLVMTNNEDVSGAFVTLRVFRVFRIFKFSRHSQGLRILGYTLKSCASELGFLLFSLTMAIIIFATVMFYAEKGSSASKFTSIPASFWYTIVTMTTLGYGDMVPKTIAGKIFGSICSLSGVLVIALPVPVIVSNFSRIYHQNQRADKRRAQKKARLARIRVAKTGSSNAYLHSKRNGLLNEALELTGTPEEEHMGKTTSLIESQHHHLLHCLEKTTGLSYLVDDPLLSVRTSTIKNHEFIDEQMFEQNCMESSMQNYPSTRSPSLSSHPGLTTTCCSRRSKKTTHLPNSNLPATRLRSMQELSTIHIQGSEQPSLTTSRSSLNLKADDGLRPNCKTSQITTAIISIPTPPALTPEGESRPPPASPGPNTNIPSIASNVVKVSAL

[7] = target: T1, A-type voltage-gated potassium channel KCND3; assay: Inhibition of Kv4.3 in human atrial myocytes assessed as recovery time constant of transient outward potassium current amplitude at 10 uM by whole cell patch clamp method (reference value: 102 +/- 12 ms); format: cell-based
[8] = Effect on amplitude of action potential in human atrial myocytes at 5 to 10 uM by whole cell patch clamp method; format: cell-based; settings: cardiac muscle cell
Cardiac muscle cell [9] = assay: Increase in action potential duration at 50% repolarization in human atrial myocytes at 0.5 to 2 Hz at 10 uM by whole cell patch clamp method; format: functional, cell-based
Cardiac muscle cell [10] = assay: Increase in action potential duration at 75% repolarization in human atrial myocytes at 0.5 to 2 Hz at 10 uM by whole cell patch clamp method; format: functional, cell-based
Cardiac muscle cell [11] = assay: Increase in action potential duration at 90% repolarization in human atrial myocytes at 0.5 to 2 Hz at 10 uM by whole cell patch clamp method; format: functional, cell-based
Cavia porcellus = organism: Cavia porcellus; assay: Inhibition of acetylcholine-activated potassium channel in guinea pig atrial myocytes assessed as reversal of carbachol-induced membrane conductance at 3 uM by whole cell patch clamp method; format: cell-based
[12] = target: Voltage-gated inwardly rectifying potassium channel KCNH2 (Homo sapiens, UniProt Q12809); assay: Inhibition of human ERG expressed in HEK293 cells assessed as decrease in current amplitude at 30 uM by whole cell patch clamp method; format: cell-based; settings: hek293, 30 µM
Sequence of Voltage-gated inwardly rectifying potassium channel KCNH2 (Q12809 whole entry): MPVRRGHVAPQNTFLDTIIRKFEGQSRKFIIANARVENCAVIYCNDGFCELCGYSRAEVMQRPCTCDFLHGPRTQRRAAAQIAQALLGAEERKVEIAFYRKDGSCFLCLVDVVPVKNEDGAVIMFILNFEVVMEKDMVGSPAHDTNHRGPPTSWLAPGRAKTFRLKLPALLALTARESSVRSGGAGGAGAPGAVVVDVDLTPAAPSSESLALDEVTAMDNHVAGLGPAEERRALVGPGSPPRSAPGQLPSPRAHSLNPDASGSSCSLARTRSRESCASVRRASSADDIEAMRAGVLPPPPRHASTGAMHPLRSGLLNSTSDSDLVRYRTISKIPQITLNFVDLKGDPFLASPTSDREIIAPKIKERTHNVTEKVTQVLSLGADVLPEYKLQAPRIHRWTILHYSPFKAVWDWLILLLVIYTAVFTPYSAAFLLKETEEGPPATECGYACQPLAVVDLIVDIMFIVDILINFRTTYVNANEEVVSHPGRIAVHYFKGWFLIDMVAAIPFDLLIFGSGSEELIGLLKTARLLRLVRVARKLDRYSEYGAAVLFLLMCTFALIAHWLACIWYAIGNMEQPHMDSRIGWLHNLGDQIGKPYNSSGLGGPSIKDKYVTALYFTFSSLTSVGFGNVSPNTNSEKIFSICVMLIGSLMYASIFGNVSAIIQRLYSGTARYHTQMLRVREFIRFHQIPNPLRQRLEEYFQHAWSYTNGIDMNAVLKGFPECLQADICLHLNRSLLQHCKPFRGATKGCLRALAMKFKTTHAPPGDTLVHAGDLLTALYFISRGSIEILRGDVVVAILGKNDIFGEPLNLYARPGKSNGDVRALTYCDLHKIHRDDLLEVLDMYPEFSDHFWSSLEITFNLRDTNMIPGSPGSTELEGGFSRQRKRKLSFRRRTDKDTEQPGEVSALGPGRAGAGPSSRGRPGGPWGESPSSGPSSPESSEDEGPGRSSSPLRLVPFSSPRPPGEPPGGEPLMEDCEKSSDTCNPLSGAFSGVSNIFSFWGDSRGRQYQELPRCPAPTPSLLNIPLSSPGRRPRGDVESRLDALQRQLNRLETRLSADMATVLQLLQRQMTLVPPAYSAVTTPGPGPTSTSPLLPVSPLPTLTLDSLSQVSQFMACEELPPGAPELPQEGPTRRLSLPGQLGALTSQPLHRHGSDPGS

[13] = target: T2, Voltage-gated potassium channel, IKs; KCNQ1(Kv7.1)/KCNE1(MinK) (Homo sapiens, UniProt P51787+P15382); assay: Inhibition of human KCNQ1/KCNE1 expressed in HEK293 cells assessed as decrease in current amplitude at 30 uM by whole cell patch clamp method; format: cell-based; settings: hek293, 30 µM
T2 sequence (P51787 whole entry): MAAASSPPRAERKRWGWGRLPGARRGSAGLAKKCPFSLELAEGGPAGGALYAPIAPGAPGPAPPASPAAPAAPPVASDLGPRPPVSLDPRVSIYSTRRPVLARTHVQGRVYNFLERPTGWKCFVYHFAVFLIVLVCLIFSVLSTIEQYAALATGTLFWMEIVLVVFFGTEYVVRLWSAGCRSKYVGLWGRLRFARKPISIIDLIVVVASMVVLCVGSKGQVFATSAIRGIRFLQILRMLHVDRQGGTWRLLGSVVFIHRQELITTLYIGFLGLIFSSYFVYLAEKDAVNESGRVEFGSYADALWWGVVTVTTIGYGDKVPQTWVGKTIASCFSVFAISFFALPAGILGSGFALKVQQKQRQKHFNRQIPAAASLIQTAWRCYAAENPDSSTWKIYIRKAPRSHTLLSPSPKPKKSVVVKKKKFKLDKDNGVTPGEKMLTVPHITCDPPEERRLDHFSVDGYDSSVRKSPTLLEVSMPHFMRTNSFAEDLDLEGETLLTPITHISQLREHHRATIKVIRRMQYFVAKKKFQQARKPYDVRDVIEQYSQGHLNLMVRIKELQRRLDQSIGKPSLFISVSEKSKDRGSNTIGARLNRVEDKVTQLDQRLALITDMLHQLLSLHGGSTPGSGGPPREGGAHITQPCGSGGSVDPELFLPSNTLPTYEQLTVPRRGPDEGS

[14] = target: T2, Voltage-gated potassium channel, IKs; KCNQ1(Kv7.1)/KCNE1(MinK); assay: Inhibition of human KCNQ1/KCNE1 expressed in HEK293 cells assessed as recovery of current amplitude at 30 uM measured after compound washout by whole cell patch clamp method; format: cell-based; set-up: scale not given: the % may be the effect or the level left; settings: hek293, 30 µM
[15] = target: T2, Voltage-gated potassium channel, IKs; KCNQ1(Kv7.1)/KCNE1(MinK); assay: Inhibition of human KCNQ1/KCNE1 expressed in HEK293 cells assessed as decrease in current amplitude at +20 to +60 mV by whole cell patch clamp method; format: cell-based
Heart [16] = assay: Effect on heart rate in New Zealand white rabbit heart under hypokalemic conditions at 30 uM by electrocardiogram (reference value: 157 to 175 /min); format: ADME, tissue-based, Oryctolagus cuniculus
Heart [17] = assay: Effect on QTc interval in New Zealand white rabbit heart under hypokalemic conditions at 30 uM by electrocardiogram (reference value: 304.5 to 340.1 ms); format: ADME, Oryctolagus cuniculus
Canis familiaris [18] = assay: Anti-atrial fibrillation activity in anesthetized dog assessed as prolongation of effective refractory time period of left atrium at 200 to 250 ms of basic cycle length at 5 mg/kg administered intraduodenally measured after 1 to 4 hrs relative to vehicle-treated control; format: functional, Canis lupus familiaris
Canis familiaris [19] = assay: Induction of QTc interval prolongation in anesthetized dog at 5 mg/kg administered intraduodenally after 1 to 4 hrs; format: organism-based, Canis lupus familiaris; settings: in vivo, other
Canis familiaris [20] = assay: Anti-atrial fibrillation activity in bilateral vagal stimulated anesthetized dog assessed as time duration of atrial fibrillation at 100 ms of basic cycle length at 5 mg/kg administered intraduodenally measured after 2 hrs; format: functional, Canis lupus familiaris
Canis familiaris [21] = assay: Anti-atrial fibrillation activity in bilateral vagal stimulated anesthetized dog assessed as time duration of atrial fibrillation at 100 ms of basic cycle length at 10 mg/kg administered intraduodenally; format: functional, Canis lupus familiaris
Mus musculus [22] = assay: Acute toxicity in Kunming mouse assessed as mortality at 0.3 g/kg, po administered every 1.5 hrs for 3 times measured for 2 weeks relative to vehicle-treated control; format: organism-based; settings: in vivo, 300 mg/kg, 336 h
Mus musculus [23] = assay: Acute toxicity in Kunming mouse assessed as abnormal activity at 0.3 g/kg, po administered every 1.5 hrs for 3 times measured for 2 weeks relative to vehicle-treated control; format: organism-based; settings: in vivo, 300 mg/kg, 336 h
Cardiac muscle cell [24] = assay: Increase in reverse rate-dependent action potential duration at 50% repolarization in human atrial myocytes at 0.5 to 2 Hz at 50 uM by whole cell patch clamp method; format: functional, cell-based
Cardiac muscle cell [25] = assay: Increase in reverse rate-dependent action potential duration at 75% repolarization in human atrial myocytes at 0.5 to 2 Hz at 50 uM by whole cell patch clamp method; format: functional, cell-based
Cardiac muscle cell [26] = assay: Increase in reverse rate-dependent action potential duration at 90% repolarization in human atrial myocytes at 0.5 to 2 Hz at 50 uM by whole cell patch clamp method; format: functional, cell-based

SMILES: COc1ccc(-c2cc(=O)c3c(O)cc(O)cc3o2)cc1 [ACACETIN]
- Activity (Cardiac muscle cell [1]): Active
- Activity [2]: Non-Toxic
- inhibition [3]: Active
- inhibition [4]: Active
- inhibition [5]: Dose-dependent effect
- inhibition (INH) [6]: Active
- Time [7]: 136 ms
- Activity [8]: Non-Toxic
- Activity (Cardiac muscle cell [9]): Active
- Activity (Cardiac muscle cell [10]): Active
- Activity (Cardiac muscle cell [11]): Active
- inhibition (Cavia porcellus): Active
- inhibition (INH) [12]: Active
- inhibition (INH) [13]: Active
- Activity [14]: 83%
- inhibition (INH) [15]: Dose-dependent effect
- Activity (Heart [16]): 156 bpm
- Time (Heart [17]): 308.7 ms
- Activity (Canis familiaris [18]): 10 - 25%
- Activity (Canis familiaris [19]): Non-Toxic
- Time (Canis familiaris [20]): 5.31 to 6.12 min
- Time (Canis familiaris [21]): 4.3 to 7.11 min
- Activity (Mus musculus [22]): Non-Toxic
- Activity (Mus musculus [23]): Non-Toxic

SMILES: CC(C)NCC(O)c1ccc(NS(C)(=O)=O)cc1 (centres undefined) [SOTALOL]
- Activity (Canis familiaris [19]): Toxic
- Time (Canis familiaris [20]): 8.5 min

SMILES: Nc1ccncc1
- Activity (Cardiac muscle cell [24]): Active
- Activity (Cardiac muscle cell [25]): Active
- Activity (Cardiac muscle cell [26]): Active
